Data published in ChEMBL document CHEMBL1201861, “Genomics of Drug Sensitity in Cancer screening data, Wellcome Trust Sanger Institute”.

Key:
Assay type in all cases: functional, cell-based
J82 = assay: cells; details: Homo sapiens;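 note: growth inhibition of J82 cells, read out with a cell viability assay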
Description: SANGER: Inhibition of human J82 cell growth in a cell viability assay.

HGC-27 = assay: cells; details: Homo sapiens;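 note: growth inhibition of human HGC-27 cells, read out in a cell viability assay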
Description: SANGER: Inhibition of human HGC-27 cell growth in a cell viability assay.

BHY = assay: cells; details: Homo sapiens;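 note: cell growth inhibition read out by a viability assay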
Description: SANGER: Inhibition of human BHY cell growth in a cell viability assay.

RMG-I = assay: cells; details: Homo sapiens;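 note: growth inhibition of human RMG-I cells, read out with a cell viability assay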
Description: SANGER: Inhibition of human RMG-I cell growth in a cell viability assay.

PC-3 = assay: cells; details: Homo sapiens;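 note: cell viability assay measuring growth inhibition of PC-3 cells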
Description: SANGER: Inhibition of human PC-3 cell growth in a cell viability assay.

NCI-H727 = assay: cells; details: Homo sapiens;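 note: growth inhibition of human NCI-H727 cells, read out with a cell viability assay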
Description: SANGER: Inhibition of human NCI-H727 cell growth in a cell viability assay.

LCLC-97TM1 = assay: cells; details: Homo sapiens;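 note: cell viability assay measuring growth inhibition of human LCLC-97TM1 cells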
Description: SANGER: Inhibition of human LCLC-97TM1 cell growth in a cell viability assay.

SW1463 = assay: cells; details: Homo sapiens;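 note: growth inhibition of SW1463 cells, determined with a cell viability assay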
Description: SANGER: Inhibition of human SW1463 cell growth in a cell viability assay.

NCI-H1693 = assay: cells; details: Homo sapiens;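 note: growth inhibition of the human cell line, read out with a cell viability assay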
Description: SANGER: Inhibition of human NCI-H1693 cell growth in a cell viability assay.

COLO-680N = assay: cells; details: Homo sapiens;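 note: cell viability assay used to measure inhibition of COLO-680N cell growth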
Description: SANGER: Inhibition of human COLO-680N cell growth in a cell viability assay.

MDA-MB-231 = assay: cells; details: Homo sapiens
Description: SANGER: Inhibition of human MDA-MB-231 cell growth in a cell viability assay.

HCC1806 = assay: cells; details: Homo sapiens;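 note: growth inhibition of the cancer cell line, determined with a cell viability assay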
Description: SANGER: Inhibition of human HCC1806 cell growth in a cell viability assay.

NCI-H2452 = assay: cells; details: Homo sapiens;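 note: growth inhibition of NCI-H2452 cells, read out with a cell viability assay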
Description: SANGER: Inhibition of human NCI-H2452 cell growth in a cell viability assay.

ASPC1 = assay: cells; details: Homo sapiens;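 note: growth inhibition of AsPC-1 cells, read out with a cell viability assay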
Description: SANGER: Inhibition of human AsPC-1 cell growth in a cell viability assay.

HO-1-N-1 = assay: cells; details: Homo sapiens;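 note: growth inhibition of human HO-1-N-1 cells, read out with a cell viability assay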
Description: SANGER: Inhibition of human HO-1-N-1 cell growth in a cell viability assay.

Calu-3 = assay: cells; details: Homo sapiens;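 note: growth inhibition of human Calu-3 cells, determined with a cell viability assay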
Description: SANGER: Inhibition of human Calu-3 cell growth in a cell viability assay.

ECC4 = assay: cells; details: Homo sapiens;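 note: growth inhibition of ECC4 cells, read out with a cell viability assay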
Description: SANGER: Inhibition of human ECC4 cell growth in a cell viability assay.

NB12 = assay: cells; details: Homo sapiens;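 note: growth inhibition of human NB12 cells, read out by a cell viability assay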
Description: SANGER: Inhibition of human NB12 cell growth in a cell viability assay.

Daudi = assay: cells; details: Homo sapiens;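 note: growth inhibition of Daudi cells, read out by a viability assay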
Description: SANGER: Inhibition of human Daudi cell growth in a cell viability assay.

SNU-16 = assay: cells; details: Homo sapiens;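 note: growth inhibition of human SNU-16 cells, determined with a cell viability readout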
Description: SANGER: Inhibition of human NCI-SNU-16 cell growth in a cell viability assay.

KU-19-19 = assay: cells; details: Homo sapiens
Description: SANGER: Inhibition of human KU-19-19 cell growth in a cell viability assay.

NCI-H2141 = assay: cells; details: Homo sapiens;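 note: growth inhibition of human NCI-H2141 cells, read out with a cell viability assay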
Description: SANGER: Inhibition of human NCI-H2141 cell growth in a cell viability assay.

COLO-679 = assay: cells; details: Homo sapiens
Description: SANGER: Inhibition of human COLO-679 cell growth in a cell viability assay.

AN3-CA = assay: cells; details: Homo sapiens;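 note: growth inhibition of human AN3-CA cells measured by a cell viability assay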
Description: SANGER: Inhibition of human AN3-CA cell growth in a cell viability assay.

CESS = assay: SANGER: Inhibition of human CESS cell growth in a cell viability assay.
RO82-W-1 = assay: cells; details: Homo sapiens;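 note: growth inhibition of human RO82-W-1 cells, measured with a cell viability assay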
Description: SANGER: Inhibition of human RO82-W-1 cell growth in a cell viability assay.

MKN-7 = assay: cells; details: Homo sapiens;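 note: growth inhibition of MKN-7 cells, read out with a cell viability assay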
Description: SANGER: Inhibition of human MKN7 cell growth in a cell viability assay.

YAPC = assay: cells; details: Homo sapiens;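 note: growth inhibition of YAPC cells, measured with a cell viability assay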
Description: SANGER: Inhibition of human YAPC cell growth in a cell viability assay.

SK-MES-1 = assay: cells; details: Homo sapiens;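 note: growth inhibition of human SK-MES-1 cells, read out with a cell viability assay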
Description: SANGER: Inhibition of human SK-MES-1 cell growth in a cell viability assay.

CAL-148 = assay: cells; details: Homo sapiens
Description: SANGER: Inhibition of human CAL-148 cell growth in a cell viability assay.

KYSE-150 cell line = assay: cells; details: Homo sapiens;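 note: growth inhibition of human KYSE-150 cells, read out with a cell viability assay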
Description: SANGER: Inhibition of human KYSE-150 cell growth in a cell viability assay.

HCC1937 = assay: cells; details: Homo sapiens;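 note: growth inhibition measured with a cell viability read-out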
Description: SANGER: Inhibition of human HCC1937 cell growth in a cell viability assay.

DMS-153 = assay: cells; details: Homo sapiens
Description: SANGER: Inhibition of human DMS-153 cell growth in a cell viability assay.

A204 = assay: cells; details: Homo sapiens;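 note: growth inhibition of human A204 cells, read out with a cell viability assay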
Description: SANGER: Inhibition of human A204 cell growth in a cell viability assay.

NCI-H520 = assay: cells; details: Homo sapiens;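 note: growth inhibition of NCI-H520 cells, measured by a cell viability assay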
Description: SANGER: Inhibition of human NCI-H520 cell growth in a cell viability assay.

NCI-H716 = assay: cells; details: Homo sapiens;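 note: growth inhibition of human NCI-H716 cells, measured by a cell viability assay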
Description: SANGER: Inhibition of human NCI-H716 cell growth in a cell viability assay.

SK-MM-2 = assay: cells; details: Homo sapiens;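 note: growth inhibition of human SK-MM-2 cells, read out with a cell viability assay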
Description: SANGER: Inhibition of human SK-MM-2 cell growth in a cell viability assay.

G-361 = assay: cells; details: Homo sapiens
GAMG = assay: cells; details: Homo sapiens;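 note: cell growth inhibition measured by a viability assay in the GAMG human cell line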
Description: SANGER: Inhibition of human GAMG cell growth in a cell viability assay.

NCI-H345 = assay: cells; details: Homo sapiens;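 note: growth inhibition of NCI-H345 cells measured with a cell viability assay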
Description: SANGER: Inhibition of human NCI-H345 cell growth in a cell viability assay.

UACC-62 = assay: cells; details: Homo sapiens;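 note: growth inhibition of human UACC-62 cells, read out by a cell viability assay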
Description: SANGER: Inhibition of human UACC-62 cell growth in a cell viability assay.

KYSE-510 = assay: cells; details: Homo sapiens;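 note: cell viability readout used to measure how strongly growth of the cell line is suppressed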
Description: SANGER: Inhibition of human KYSE-510 cell growth in a cell viability assay.

NCI-H1437 = assay: cells; details: Homo sapiens;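 note: growth inhibition of human NCI-H1437 cells, read out by a cell viability assay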
Description: SANGER: Inhibition of human NCI-H1437 cell growth in a cell viability assay.

RPMI 8402 = assay: SANGER: Inhibition of human RPMI-8402 cell growth in a cell viability assay.
SW13 = assay: cells; details: Homo sapiens;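 note: IC50 is inhibition of SW13 cell growth, read out with a cell viability assay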
Description: SANGER: Inhibition of human SW13 cell growth in a cell viability assay.

CAL-51 = assay: cells; details: Homo sapiens;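 note: human CAL-51 cell line, growth inhibition read out via a cell viability assay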
Description: SANGER: Inhibition of human CAL-51 cell growth in a cell viability assay.

LP-1 = assay: cells; details: Homo sapiens;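 note: growth inhibition of human LP-1 cells, with the read-out taken from a cell viability assay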
Description: SANGER: Inhibition of human LP-1 cell growth in a cell viability assay.

NCI-H1623 = assay: cells; details: Homo sapiens;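 note: cell viability assay used as the read-out for growth inhibition of NCI-H1623 cells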
Description: SANGER: Inhibition of human NCI-H1623 cell growth in a cell viability assay.

NCI-H2081 = assay: cells; details: Homo sapiens;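 note: growth inhibition of human NCI-H2081 cells, read out with a cell viability assay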
Description: SANGER: Inhibition of human NCI-H2081 cell growth in a cell viability assay.

RVH-421 = assay: cells; details: Homo sapiens
Description: SANGER: Inhibition of human RVH-421 cell growth in a cell viability assay.

T47D = assay: cells; details: Homo sapiens;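 note: growth inhibition of human T47D cells, measured with a cell viability assay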
Description: SANGER: Inhibition of human T47D cell growth in a cell viability assay.

RCM-1 = assay: cells; details: Homo sapiens;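 note: growth inhibition of the RCM-1 line, determined with a cell viability readout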
Description: SANGER: Inhibition of human RCM-1 cell growth in a cell viability assay.

H4 = assay: cells; details: Homo sapiens
Description: SANGER: Inhibition of human H4 cell growth in a cell viability assay.

LN-405 = assay: cells; details: Homo sapiens
Description: SANGER: Inhibition of human LN-405 cell growth in a cell viability assay.

COLO-741 = assay: cells; details: Homo sapiens
Description: SANGER: Inhibition of human COLO-741 cell growth in a cell viability assay.

NY = assay: cells; details: Homo sapiens
Description: SANGER: Inhibition of human NY cell growth in a cell viability assay.

OE33 = assay: cells; details: Homo sapiens;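 note: growth inhibition of human OE33 cells, measured by a cell viability assay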
Description: SANGER: Inhibition of human OE33 cell growth in a cell viability assay.

CPC-N = assay: cells; details: Homo sapiens;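 note: growth inhibition of CPC-N cells, with a cell viability assay as the readout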
Description: SANGER: Inhibition of human CPC-N cell growth in a cell viability assay.

SK-OV-3 = assay: cells; details: Homo sapiens;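 note: growth inhibition of SK-OV-3 human cells, read out with a cell viability assay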
Description: SANGER: Inhibition of human SK-OV-3 cell growth in a cell viability assay.

CAL-120 = assay: cells; details: Homo sapiens;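 note: cell growth inhibition, read out as cell viability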
Description: SANGER: Inhibition of human CAL-120 cell growth in a cell viability assay.

PC-14 = assay: cells; details: Homo sapiens;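 note: cell viability assay measuring inhibition of PC-14 cell growth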
Description: SANGER: Inhibition of human PC-14 cell growth in a cell viability assay.

MDA-MB-134-VI = assay: cells; details: Homo sapiens
Description: SANGER: Inhibition of human MDA-MB-134-VI cell growth in a cell viability assay.

MDA-MB-453 = assay: cells; details: Homo sapiens
Description: SANGER: Inhibition of human MDA-MB-453 cell growth in a cell viability assay.

NCI-H661 = assay: cells; details: Homo sapiens;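 note: cell viability assay read-out, IC50 being the concentration that inhibits growth of the cells by half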
Description: SANGER: Inhibition of human NCI-H661 cell growth in a cell viability assay.

NCI-H292 = assay: cells; details: Homo sapiens
Description: SANGER: Inhibition of human NCI-H292 cell growth in a cell viability assay.

O=c1[nH]c2ccccc2n1C1CCN(Cc2ccc(-c3nc4cc5[nH]cnc5cc4nc3-c3ccccc3)cc2)CC1
IC50 (J82): > 2560 nM
IC50 (HGC-27): 150 nM
IC50 (BHY): > 2560 nM
IC50 (RMG-I): > 2560 nM
IC50 (PC-3): > 2560 nM
IC50 (NCI-H727): > 2560 nM
IC50 (LCLC-97TM1): 2300 nM
IC50 (SW1463): > 2560 nM
IC50 (NCI-H1693): > 2560 nM
IC50 (COLO-680N): > 2560 nM
IC50 (MDA-MB-231): > 2560 nM
IC50 (HCC1806): > 2560 nM
IC50 (NCI-H2452): > 2560 nM
IC50 (ASPC1): > 2560 nM
IC50 (HO-1-N-1): > 2560 nM
IC50 (Calu-3): > 2560 nM
IC50 (ECC4): > 2560 nM
IC50 (NB12): > 2560 nM
IC50 (Daudi): > 2560 nM
IC50 (SNU-16): > 2560 nM
IC50 (KU-19-19): > 2560 nM
IC50 (NCI-H2141): > 2560 nM
IC50 (COLO-679): > 2560 nM
IC50 (AN3-CA): 1660 nM
IC50 (CESS): > 2560 nM
IC50 (RO82-W-1): > 2560 nM
IC50 (MKN-7): > 2560 nM
IC50 (YAPC): > 2560 nM
IC50 (SK-MES-1): 2100 nM
IC50 (CAL-148): > 2560 nM
IC50 (KYSE-150 cell line): > 2560 nM
IC50 (HCC1937): > 2560 nM
IC50 (DMS-153): > 2560 nM
IC50 (A204): > 2560 nM
IC50 (NCI-H520): 1130 nM
IC50 (NCI-H716): > 2560 nM
IC50 (SK-MM-2): > 2560 nM
IC50 (G-361): > 2560 nM
IC50 (GAMG): > 2560 nM
IC50 (NCI-H345): > 2560 nM
IC50 (UACC-62): > 2560 nM
IC50 (KYSE-510): 2210 nM
IC50 (NCI-H1437): > 2560 nM
IC50 (RPMI 8402): > 2560 nM
IC50 (SW13): > 2560 nM
IC50 (CAL-51): > 2560 nM
IC50 (LP-1): > 2560 nM
IC50 (NCI-H1623): > 2560 nM
IC50 (NCI-H2081): > 2560 nM
IC50 (RVH-421): > 2560 nM
IC50 (T47D): 516 nM
IC50 (RCM-1): > 2560 nM
IC50 (H4): > 2560 nM
IC50 (LN-405): > 2560 nM
IC50 (COLO-741): > 2560 nM
IC50 (NY): > 2560 nM
IC50 (OE33): 1890 nM
IC50 (CPC-N): > 2560 nM
IC50 (SK-OV-3): > 2560 nM
IC50 (CAL-120): > 2560 nM
IC50 (PC-14): > 2560 nM
IC50 (MDA-MB-134-VI): > 2560 nM
IC50 (MDA-MB-453): > 2560 nM
IC50 (NCI-H661): > 2560 nM
IC50 (NCI-H292): > 2560 nM

Fc1cc(-c2cc[nH]/c(=N/c3ccc(-n4cnc(N5CCOCC5)n4)cc3)n2)cc(N2CCOCC2)c1
IC50 (J82): 800 nM
IC50 (HGC-27): 284 nM
IC50 (BHY): 510 nM
IC50 (RMG-I): 1250 nM
IC50 (PC-3): 4550 nM
IC50 (NCI-H727): 647 nM
IC50 (LCLC-97TM1): 163 nM
IC50 (SW1463): 649 nM
IC50 (NCI-H1693): > 5120 nM
IC50 (COLO-680N): 565 nM
IC50 (MDA-MB-231): 967 nM
IC50 (HCC1806): 637 nM
IC50 (NCI-H2452): 1690 nM
IC50 (ASPC1): 3800 nM
IC50 (HO-1-N-1): 617 nM
IC50 (Calu-3): 824 nM
IC50 (ECC4): 2730 nM
IC50 (NB12): 383 nM
IC50 (Daudi): 381 nM
IC50 (SNU-16): > 5120 nM
IC50 (KU-19-19): 5100 nM
IC50 (NCI-H2141): > 5120 nM
IC50 (COLO-679): 250 nM
IC50 (AN3-CA): 335 nM
IC50 (CESS): 341 nM
IC50 (RO82-W-1): > 5120 nM
IC50 (MKN-7): 3140 nM
IC50 (YAPC): 2290 nM
IC50 (SK-MES-1): 153 nM
IC50 (CAL-148): 4940 nM
IC50 (KYSE-150 cell line): 664 nM
IC50 (HCC1937): 1230 nM
IC50 (DMS-153): 1240 nM
IC50 (A204): 165 nM
IC50 (NCI-H520): 467 nM
IC50 (NCI-H716): 3920 nM
IC50 (SK-MM-2): 1270 nM
IC50 (G-361): 266 nM
IC50 (GAMG): 1340 nM
IC50 (NCI-H345): 4540 nM
IC50 (UACC-62): 370 nM
IC50 (KYSE-510): 447 nM
IC50 (NCI-H1437): 243 nM
IC50 (RPMI 8402): 605 nM
IC50 (SW13): 1380 nM
IC50 (CAL-51): 219 nM
IC50 (LP-1): 483 nM
IC50 (NCI-H1623): 1300 nM
IC50 (NCI-H2081): 1500 nM
IC50 (RVH-421): 415 nM
IC50 (T47D): > 5120 nM
IC50 (RCM-1): 1760 nM
IC50 (H4): 439 nM
IC50 (LN-405): 991 nM
IC50 (COLO-741): > 5120 nM
IC50 (NY): 623 nM
IC50 (OE33): 517 nM
IC50 (CPC-N): 4220 nM
IC50 (SK-OV-3): 2070 nM
IC50 (CAL-120): 1420 nM
IC50 (PC-14): 877 nM
IC50 (MDA-MB-134-VI): 4680 nM
IC50 (MDA-MB-453): > 5120 nM
IC50 (NCI-H661): 501 nM
IC50 (NCI-H292): 508 nM
